Measured values: patent US20110217309A1, “BIOLOGICAL MARKERS PREDICTIVE OF ANTI-CANCER RESPONSE TO INSULIN-LIKE GROWTH FACTOR-1 RECEPTOR KINASE INHIBITORS” (priority 2010, published 2011)

Columns and labels:
BT20 = assay: Cell Titer Glo proliferation assay; assay type: cell-based, human; conditions: BT20 breast cancer, PIK3CA mutant
Description: (§1) Cell Lines and Culture. Human cancer cell lines, were obtained from American Type Culture Collection (ATCC, Manassas, Va.), or the following additional indicated sources, and cultured in media as described. Tumor types are also indicated: H295R (adrenocortical carcinoma; ATCC), NCI-[…], NCI-[…], SW1573 (NSCLC; ATCC), […], BxPC3 (pancreatic; ATCC), OVCAR5 (ovarian; NCI), MDAH-2774 (ovarian; ATCC), Igrov1 (ovarian; NCI), GEO (colon; Roswell Park Cancer Institute (RPCC)), HT-29 (colon; ATCC), RKO (colon; ATCC), […], 8226 (myeloma; ATCC), H929 (myeloma; ATCC), U266 (myeloma; ATCC), SKES1 (Ewings sarcoma; ATCC), RDES (Ewings sarcoma; ATCC), RD (rhabdomyosarcoma; ATCC), DU4475 (breast; ATCC), SKNAS (neuroblastoma; ATCC), 2650 (nasal SCC; ATCC), OVCAR4 (ovarian; NCI), A673 (Ewings sarcoma; ATCC), BT474 (breast; ATCC), 1386 (oral SCC; MSKCC, NY), 1186 (SCCHN; MSKCC, NY), Colo205 (colon; ATCC), HCT-15 (colon; ATCC), Fadu (oral SCC; ATCC), SKBR3 (breast; ATCC), 1483 (HNSCC; MSKCC, NY), HSC-2 (HNSCC; RIKEN BioResource Center, Tsukuba, Ibaraki, 305-0074, Japan), SKOV-3 (ovarian; ATCC), OVCAR-3 (ovarian; NCI), OVCAR-8 (ovarian; NCI), CaOV3 (ovarian; ATCC). […] The cells were routinely screened for the presence of mycoplasma (MycoAlert, Cambrex Bio Science, Baltimore, Md.). For growth inhibition assays, cells were plated and allowed to proliferate for 24 hours. […] Cell viability was assayed using the Cell Titer-Glo reagent (Promega Corp., Madison, Wis.). Proliferation Assay. […] The basis of the assay is a luminescent quantitation of ATP present in a cell culture plate well. In essence, the greater the number of viable cells in the well, the greater the level of ATP present. The assay utilizes a substrate that binds ATP to produce a luminescent signal, which can be read on a luminometer. Unless otherwise noted, the manufacturer's instructions were followed exactly. Briefly, on Day 1, cells were plated in 120 μl of 10% serum-containing growth media at a density of 4000 cells/well in a white polystyrene 96 well assay plate. […] After 72 h incubation with the inhibitor, the cells were assayed. Results were calculated as a fraction of the DMSO controlled cells.

HCC1954 = assay: Cell Titer Glo proliferation assay; assay type: cell-based, human; conditions: HCC1954 breast cancer, PIK3CA mutant
Description: as §1

LS174T = assay: Cell Titer Glo proliferation assay; assay type: cell-based, human; conditions: LS174T colon cancer, PIK3CA mutant
Description: as §1

MCF7 = assay: Cell Titer Glo proliferation assay; assay type: cell-based, human; conditions: MCF7 breast cancer, PIK3CA mutant
Description: as §1

OVCAR4 = assay: Cell Titer Glo proliferation assay; assay type: cell-based, human; conditions: OVCAR4, wild type KRAS
Description: as §1

OVK18 = assay: Cell Titer Glo proliferation assay; assay type: cell-based, human; conditions: OVK18, wild type KRAS
Description: as §1

T47D = assay: Cell Titer Glo proliferation assay; assay type: cell-based, human; conditions: T47D breast cancer, PIK3CA mutant
Description: as §1

BxPC3 = assay: Cell Titer Glo proliferation assay; assay type: cell-based; conditions: Homo sapiens, BXPC-3, read-out: EC50 in culture in vitro
Description: as §1

Colo205 = assay: Cell Titer Glo proliferation assay; assay type: cell-based; conditions: Homo sapiens, COLO 205, read-out: EC50 in culture in vitro
Description: as §1

FaDu = assay: Cell Titer Glo proliferation assay; assay type: cell-based; conditions: Homo sapiens, read-out: EC50 in culture in vitro
Description: as §1

H295R = assay: Cell Titer Glo proliferation assay; assay type: cell-based; conditions: Homo sapiens, NCI-H295R; read-out: EC50 in culture in vitro
Description: as §1

H460 = assay: Cell Titer Glo proliferation assay; assay type: cell-based; conditions: Homo sapiens, NCI-H460; read-out: EC50 in culture in vitro
Description: as §1

SKNAS = assay: Cell Titer Glo proliferation assay; assay type: cell-based; conditions: Homo sapiens, SK-N-AS, read-out: EC50 in culture in vitro
Description: as §1

EFO-27 = assay: Cell Titer Glo proliferation assay, 88 cell line panel; assay type: cell-based, human; conditions: EFO-27 ovarian cancer, PTEN mutant, 72 hours
Protocol: (§2) Proliferation Assay. […] The basis of the assay is a luminescent quantitation of ATP present in a cell culture plate well. In essence, the greater the number of viable cells in the well, the greater the level of ATP present. The assay utilizes a substrate that binds ATP to produce a luminescent signal, which can be read on a luminometer. Unless otherwise noted, the manufacturer's instructions were followed exactly. Briefly, on Day 1, cells were plated in 120 μl of 10% serum-containing growth media at a density of 4000 cells/well in a white polystyrene 96 well assay plate. […] After 72 h incubation with the inhibitor, the cells were assayed. Results were calculated as a fraction of the DMSO controlled cells.
(§3) This included cell lines representing ovarian cancer (A2780 and EFO-27), SCCHN (HSC-4), SCLC (NCI-H446), CRC (KM12), lymphoma (MC116), breast cancer (BT549 and HCC70), and prostate cancer (PC3).

HSC-4 = assay: as above; assay type: cell-based, human; conditions: HSC-4 SCCHN, PTEN mutant, 72 hours
Protocol: as §2, §3

Colo205 tumors = assay: Tumor xenograft study; conditions: treatment in vivo for 10-14 days
H460 tumors = assay: Tumor xenograft study; conditions: treatment in vivo for 10-14 days
Akt = assay: Phosphorylation of Akt (pAKT levels); assay type: cell-based; conditions: OSI-906, in the presence or absence of pactitaxel (100, 30, 10, 3, 1 nM)
Protocol: The dotted line in the plot represents the calculated theoretical expectation if the combination was additive in nature, and was determined using the Bliss model for additivity. […] C.
The dotted line in the plot represents the calculated theoretical result if the combination was additive in nature, and was determined using the Bliss model for additivity.

EC50 (BxPC3): < 1000 nM
EC50 (Colo205): < 1000 nM
EC50 (H295R): < 1000 nM
EC50 (H460): > 10000 nM
EC50 (SKNAS): < 1000 nM
SMILES: C[C@]1(O)C[C@@H](c2nc(-c3ccc4ccc(-c5ccccc5)nc4c3)c3c(N)nccn32)C1 [OSI-906, cis-3-[8-amino-1-(2-phenyl-quinolin-7-yl)-imidazo[1,5-a]pyrazin-3-yl]-1-methyl-cyclobutanol]
sensitivity to OSI-906 (BT20): insensitive (insensitive (EC50>10 μM))
sensitivity to OSI-906 (HCC1954): insensitive (insensitive (EC50>10 μM))
sensitivity to OSI-906 (LS174T): sensitive (sensitive (EC50<1 μM))
sensitivity to OSI-906 (MCF7): sensitive (sensitive (EC50<1 μM))
sensitivity to OSI-906 (OVCAR4): insensitive (insensitive (EC50>10 μM))
sensitivity to OSI-906 (OVK18): insensitive (insensitive (EC50>10 μM))
sensitivity to OSI-906 (T47D): insensitive (insensitive (EC50>10 μM))
EC50 (FaDu): > 10000 nM
sensitivity to OSI-906 (EFO-27): insensitive (insensitive (EC50>10 μM))
sensitivity to OSI-906 (HSC-4): insensitive (insensitive (EC50>10 μM))
% TGI (tumor growth inhibition) (Colo205 tumors): 90%
% TGI (tumor growth inhibition) (H460 tumors): < 30%
phosphorylation of Akt (pAKT levels) (Akt): decrease
